The values that follow are results of earlier work, collected in patent US7511157B2, “Hepatitis C inhibitor dipeptide analogs” (Boehringer Ingelheim International GmbH, priority 2004, dated 2009).

The test system of the data set is hepatitis C virus. The following applies: two day clinical trial; Gastroenterology (2004) 127(5): 1347-1355.

In the case of `COc1ccc2c(O[C@@H]3C[C@H]4C(=O)N[C@]5(C(=O)O)C[C@H]5/C=C\CCCCC[C@H](NC(=O)OC5CCCC5)C(=O)N4C3)cc(-c3csc(NC(C)C)n3)nc2c1` [BILN 2061], the “reduction of viral loads in patients” value is given as “effective in rapidly reducing viral loads”.
